Series [1] concerns the target Rho-associated protein kinase 2 (Homo sapiens, UniProt O75116). In words: Inhibition of ROCK2.
The target in series [2] is Rho-associated protein kinase 1 (Homo sapiens, UniProt Q13464). In words: Inhibition of ROCK1.
Series [3] can be described thus: Inhibition of PKA.
The target of series [4] is Serine/threonine-protein kinase MRCK alpha (Homo sapiens) (UniProt Q5VT25). In words: Inhibition of MRCKalpha at 5 uM.
Series [5] in a line: Inhibition of p38 at 5 uM.
Series [6] concerns the target RAC-alpha serine/threonine-protein kinase (Homo sapiens) (UniProt P31749). In words: Inhibition of AKT at 5 uM.
The target in series [7] is Mitogen-activated protein kinase 10 (Homo sapiens) (UniProt P53779). In words: Inhibition of JNK3 at 5 uM.
The nature of series [8]: Half life in human liver microsomes. The format is ADME, Microsome.
The target in another series is T1, CYP1A2 (Homo sapiens, UniProt P05177).
T1 sequence (P05177 whole entry): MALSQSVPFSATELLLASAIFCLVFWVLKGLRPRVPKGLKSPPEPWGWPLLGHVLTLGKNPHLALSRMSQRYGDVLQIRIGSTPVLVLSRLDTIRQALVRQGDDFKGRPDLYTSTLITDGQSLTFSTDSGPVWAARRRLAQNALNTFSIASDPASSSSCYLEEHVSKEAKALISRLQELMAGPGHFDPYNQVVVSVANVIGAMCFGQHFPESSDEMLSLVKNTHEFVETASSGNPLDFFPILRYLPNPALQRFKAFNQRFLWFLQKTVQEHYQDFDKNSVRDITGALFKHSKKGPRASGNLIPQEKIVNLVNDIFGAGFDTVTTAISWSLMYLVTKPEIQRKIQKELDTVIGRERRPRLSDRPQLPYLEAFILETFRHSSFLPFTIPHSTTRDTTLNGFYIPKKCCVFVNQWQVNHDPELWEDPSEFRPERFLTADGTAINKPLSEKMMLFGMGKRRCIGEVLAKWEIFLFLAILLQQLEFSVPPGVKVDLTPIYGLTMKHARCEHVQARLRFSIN
In words: Inhibition of CYP1A2 at 10 uM. The format is ADME.

Another series addresses CYP2C9 (Homo sapiens, UniProt P11712). In words: Inhibition of CYP2C9 at 10 uM. The format is ADME.
The target in the next series is CYP2D6 (Homo sapiens, UniProt P10635). In words: Inhibition of CYP2D6 at 10 uM. The format is ADME.
A further series deals with CYP3A4 (Homo sapiens, UniProt P08684). In words: Inhibition of CYP3A4 at 10 uM. The class given is ADME.
Series [9] can be described thus: Clearance in rat at 1 mg/kg, iv or 2 mg/kg, po. The class given is ADME, organism-based. To be noted: in vivo.
Series [10] can be described thus: Volume of distribution at steady state in rat at 1 mg/kg, iv or 2 mg/kg, po. As to conditions: in vivo, read-out: Vdss. The format is ADME, organism-based.
Series [11] can be described thus: Half life in rat at 1 mg/kg, iv or 2 mg/kg, po. The format is ADME, organism-based. As to conditions: in vivo.
Series [12] can be described thus: AUC in rat at 2 mg/kg, po. To be noted: plasma. The class given is ADME, organism-based. On the set-up: dose 2 mg/kg, route oral.
A short description of series [13]: Cmax in rat at 2 mg/kg, po. The format is ADME, organism-based. Also on record: dose 2 mg/kg, route oral. As to conditions: in vivo.
The nature of series [14]: Oral bioavailability in rat at 2 mg/kg. The format is ADME, organism-based. As to conditions: in vivo.
Series [15] is described as follows: AUC in rat at 1 mg/kg, iv. As to conditions: plasma. On the set-up: dose 1 mg/kg, route intravenous. The format is ADME, organism-based.
A short description of series [16]: Inhibition of myosin light chain bisphosphorylation by cell-based assay.

Each structure is given as a SMILES string. The source made the active and inactive calls. No cut-off for these calls is given here.

Rho-associated protein kinase 2, sequence (O75116 whole entry): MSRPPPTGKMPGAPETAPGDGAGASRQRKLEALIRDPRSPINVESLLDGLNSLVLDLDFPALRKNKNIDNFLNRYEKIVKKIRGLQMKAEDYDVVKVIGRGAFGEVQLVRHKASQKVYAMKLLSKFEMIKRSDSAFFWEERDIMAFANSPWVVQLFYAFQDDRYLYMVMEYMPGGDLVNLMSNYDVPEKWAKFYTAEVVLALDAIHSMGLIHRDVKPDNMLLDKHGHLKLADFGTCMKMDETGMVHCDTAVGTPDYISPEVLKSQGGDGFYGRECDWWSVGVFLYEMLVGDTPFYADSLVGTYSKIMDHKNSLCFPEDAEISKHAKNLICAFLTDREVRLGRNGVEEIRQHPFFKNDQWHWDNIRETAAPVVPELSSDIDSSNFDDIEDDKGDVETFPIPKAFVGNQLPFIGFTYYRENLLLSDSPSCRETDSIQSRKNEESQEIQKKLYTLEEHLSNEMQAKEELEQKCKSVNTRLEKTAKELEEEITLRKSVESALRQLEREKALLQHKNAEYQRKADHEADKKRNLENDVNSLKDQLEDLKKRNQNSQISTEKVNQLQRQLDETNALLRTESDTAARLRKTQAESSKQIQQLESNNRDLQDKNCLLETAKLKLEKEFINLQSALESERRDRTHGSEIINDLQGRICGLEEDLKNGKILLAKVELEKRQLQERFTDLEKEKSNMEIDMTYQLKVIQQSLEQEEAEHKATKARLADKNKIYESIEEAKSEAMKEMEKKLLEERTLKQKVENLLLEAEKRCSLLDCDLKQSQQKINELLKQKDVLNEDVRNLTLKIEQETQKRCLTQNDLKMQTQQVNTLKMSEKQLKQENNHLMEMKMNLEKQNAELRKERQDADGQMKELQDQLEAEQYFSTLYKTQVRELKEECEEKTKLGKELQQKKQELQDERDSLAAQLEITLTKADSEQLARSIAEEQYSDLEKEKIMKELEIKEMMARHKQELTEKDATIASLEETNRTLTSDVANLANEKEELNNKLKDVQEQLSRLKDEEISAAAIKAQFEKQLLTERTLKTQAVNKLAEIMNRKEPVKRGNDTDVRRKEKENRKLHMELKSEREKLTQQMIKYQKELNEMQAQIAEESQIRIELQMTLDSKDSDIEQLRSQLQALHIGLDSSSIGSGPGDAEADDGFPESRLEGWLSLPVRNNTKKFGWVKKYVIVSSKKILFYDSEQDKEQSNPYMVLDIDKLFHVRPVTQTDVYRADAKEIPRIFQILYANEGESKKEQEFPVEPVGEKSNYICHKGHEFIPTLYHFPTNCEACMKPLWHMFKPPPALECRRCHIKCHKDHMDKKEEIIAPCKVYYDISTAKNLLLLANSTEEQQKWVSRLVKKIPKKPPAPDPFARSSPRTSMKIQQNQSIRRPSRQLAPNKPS
CYP2D6, sequence (P10635 whole entry): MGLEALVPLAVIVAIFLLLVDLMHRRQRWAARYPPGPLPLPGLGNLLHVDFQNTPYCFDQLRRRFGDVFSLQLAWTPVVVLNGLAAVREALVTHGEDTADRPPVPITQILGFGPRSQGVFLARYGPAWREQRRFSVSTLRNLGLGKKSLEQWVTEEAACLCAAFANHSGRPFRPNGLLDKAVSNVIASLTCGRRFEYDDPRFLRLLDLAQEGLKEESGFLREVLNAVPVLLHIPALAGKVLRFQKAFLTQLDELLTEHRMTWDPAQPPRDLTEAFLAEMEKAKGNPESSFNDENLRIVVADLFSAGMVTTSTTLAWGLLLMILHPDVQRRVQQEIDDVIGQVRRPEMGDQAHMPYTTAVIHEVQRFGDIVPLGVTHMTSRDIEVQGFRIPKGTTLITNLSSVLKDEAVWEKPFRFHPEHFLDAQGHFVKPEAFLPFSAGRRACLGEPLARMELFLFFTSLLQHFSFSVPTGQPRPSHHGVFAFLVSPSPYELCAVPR
CYP3A4, sequence (P08684 whole entry): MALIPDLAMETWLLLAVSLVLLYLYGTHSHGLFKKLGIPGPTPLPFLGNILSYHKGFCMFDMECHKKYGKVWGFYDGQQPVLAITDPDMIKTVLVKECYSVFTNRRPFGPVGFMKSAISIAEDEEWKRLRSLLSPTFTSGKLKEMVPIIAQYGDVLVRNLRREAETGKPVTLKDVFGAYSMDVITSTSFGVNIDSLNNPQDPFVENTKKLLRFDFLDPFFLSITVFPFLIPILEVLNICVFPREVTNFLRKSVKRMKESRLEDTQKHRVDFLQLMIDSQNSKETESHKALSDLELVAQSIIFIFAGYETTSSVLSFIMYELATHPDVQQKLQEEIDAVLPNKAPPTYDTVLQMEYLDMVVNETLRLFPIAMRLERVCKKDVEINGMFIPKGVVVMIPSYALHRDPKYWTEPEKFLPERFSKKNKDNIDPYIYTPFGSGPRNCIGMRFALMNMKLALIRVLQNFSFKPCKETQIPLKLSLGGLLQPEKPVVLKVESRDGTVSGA
Rho-associated protein kinase 1, sequence (Q13464 whole entry): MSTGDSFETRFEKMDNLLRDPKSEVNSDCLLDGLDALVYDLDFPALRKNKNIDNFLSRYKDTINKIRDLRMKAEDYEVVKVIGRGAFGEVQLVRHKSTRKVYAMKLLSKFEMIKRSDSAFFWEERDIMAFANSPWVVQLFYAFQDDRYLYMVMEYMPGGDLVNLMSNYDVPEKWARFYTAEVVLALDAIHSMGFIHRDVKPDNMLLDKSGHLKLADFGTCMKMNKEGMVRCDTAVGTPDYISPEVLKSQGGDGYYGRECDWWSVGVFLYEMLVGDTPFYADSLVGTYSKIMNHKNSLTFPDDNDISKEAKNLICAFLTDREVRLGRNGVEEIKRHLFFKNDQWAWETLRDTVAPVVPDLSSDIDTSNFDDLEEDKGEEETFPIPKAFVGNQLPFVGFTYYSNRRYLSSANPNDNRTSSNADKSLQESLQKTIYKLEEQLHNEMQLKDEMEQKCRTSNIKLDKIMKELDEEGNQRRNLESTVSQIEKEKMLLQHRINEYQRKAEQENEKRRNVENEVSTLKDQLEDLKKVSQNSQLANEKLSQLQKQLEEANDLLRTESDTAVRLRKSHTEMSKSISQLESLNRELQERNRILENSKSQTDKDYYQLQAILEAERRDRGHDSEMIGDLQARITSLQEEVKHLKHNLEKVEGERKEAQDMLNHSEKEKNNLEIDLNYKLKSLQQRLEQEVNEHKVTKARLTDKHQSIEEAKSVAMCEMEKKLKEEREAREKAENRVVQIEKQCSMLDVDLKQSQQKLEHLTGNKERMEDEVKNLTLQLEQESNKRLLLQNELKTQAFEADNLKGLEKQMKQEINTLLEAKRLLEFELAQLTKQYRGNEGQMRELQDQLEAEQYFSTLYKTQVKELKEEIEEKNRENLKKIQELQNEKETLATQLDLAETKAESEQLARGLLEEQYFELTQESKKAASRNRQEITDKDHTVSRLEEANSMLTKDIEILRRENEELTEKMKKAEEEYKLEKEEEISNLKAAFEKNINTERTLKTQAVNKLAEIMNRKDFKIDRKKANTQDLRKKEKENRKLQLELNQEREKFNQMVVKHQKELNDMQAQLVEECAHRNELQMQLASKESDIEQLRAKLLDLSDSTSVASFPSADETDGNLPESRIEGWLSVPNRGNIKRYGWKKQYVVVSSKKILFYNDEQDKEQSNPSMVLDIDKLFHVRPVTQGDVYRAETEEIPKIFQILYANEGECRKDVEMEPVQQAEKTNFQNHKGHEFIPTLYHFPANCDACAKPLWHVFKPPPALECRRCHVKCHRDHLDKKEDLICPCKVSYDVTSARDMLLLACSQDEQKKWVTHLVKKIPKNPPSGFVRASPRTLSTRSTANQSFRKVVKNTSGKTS
CYP2C9, sequence (P11712 whole entry): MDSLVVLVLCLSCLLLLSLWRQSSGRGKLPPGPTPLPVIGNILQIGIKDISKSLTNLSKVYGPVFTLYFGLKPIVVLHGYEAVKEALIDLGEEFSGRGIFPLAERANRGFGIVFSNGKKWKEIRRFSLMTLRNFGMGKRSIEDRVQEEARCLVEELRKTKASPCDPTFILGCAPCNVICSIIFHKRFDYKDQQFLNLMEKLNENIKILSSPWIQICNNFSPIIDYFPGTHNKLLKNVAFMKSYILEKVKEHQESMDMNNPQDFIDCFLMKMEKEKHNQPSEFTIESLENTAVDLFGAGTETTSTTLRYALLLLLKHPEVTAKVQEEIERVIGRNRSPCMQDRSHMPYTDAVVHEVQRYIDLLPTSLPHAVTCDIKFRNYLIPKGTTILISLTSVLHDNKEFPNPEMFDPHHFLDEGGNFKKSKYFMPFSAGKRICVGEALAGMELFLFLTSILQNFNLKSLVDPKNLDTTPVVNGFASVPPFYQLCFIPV
RAC-alpha serine/threonine-protein kinase (Homo sapiens), sequence (P31749 whole entry): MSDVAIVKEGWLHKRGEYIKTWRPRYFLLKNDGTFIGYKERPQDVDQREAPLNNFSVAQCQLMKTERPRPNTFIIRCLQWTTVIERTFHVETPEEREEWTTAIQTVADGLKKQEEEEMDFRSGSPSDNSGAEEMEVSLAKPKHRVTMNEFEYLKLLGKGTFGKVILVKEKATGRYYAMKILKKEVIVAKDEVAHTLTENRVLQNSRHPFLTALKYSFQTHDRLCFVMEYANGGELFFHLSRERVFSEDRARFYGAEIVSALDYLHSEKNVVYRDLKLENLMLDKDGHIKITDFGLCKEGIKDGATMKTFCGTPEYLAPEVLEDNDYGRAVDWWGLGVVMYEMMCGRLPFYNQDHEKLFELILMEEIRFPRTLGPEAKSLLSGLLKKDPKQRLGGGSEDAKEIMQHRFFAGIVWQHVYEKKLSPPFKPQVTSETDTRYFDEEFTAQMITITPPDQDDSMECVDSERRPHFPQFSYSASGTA

In the case of `COc1cccc(CNC(=O)c2cc3ccc(-c4cn[nH]c4)nc3n2CCCO)c1`, the IC50 in series [1] is 24 nM; in [2] it was 88 nM; in series [3], 5800 nM. In addition, the inhibition result in series [4], in series [5], in series [6] and in series [7] was “inactive” throughout.
As to `COc1cccc(CNC(=O)c2cc3ccc(-c4cn[nH]c4)nc3n2CCN(C)C)c1`, the results for the IC50 in [1], in series [2] and in series [3] were 43 nM, 243 nM and 3670 nM, respectively. In [8], the half-life stood at 17 min. Besides, the inhibition at 10 µM against CYP1A2 was determined as 26%; on CYP2C9, 46%; against CYP2D6 it was 55%; against CYP3A4, 65%. The inhibition result in series [4], in series [5], in series [6] and in series [7] was “inactive” in each case.
Turning to `COc1cccc(CN(C(=O)c2cc3ccc(-c4cn[nH]c4)nc3[nH]2)C2CC2)c1`, the IC50 in series [1] was found to be 8 nM; in [2], 33 nM; in [3], 1700 nM. For the same compound, the half-life in [8] is 27 min; in series [11] it was 54 min. The inhibition at 10 µM was 16% against CYP1A2, 52% against CYP2C9, 30% against CYP2D6 and 40% against CYP3A4. In series [9], this compound showed a clearance of 21 mL/min/kg. Further, the Vd in [10] worked out at 1.2 L/kg. The AUC worked out at 1 µM·h in series [12] and 2.2 µM·h in series [15]. The compound further had a Cmax in [13] of 255 nM. In series [14], this compound displayed a bioavailability of 22%.
As for `COc1cccc(CNC(=O)c2cc3ccc(-c4cn[nH]c4)nc3n2C)c1`, the IC50 in series [1] is less than 1 nM; in series [2], 2 nM; in series [3], 150 nM; in series [16] it was 25 nM. Also, the half-life is 68 min in series [8] and 108 min in series [11]. Moreover, the inhibition at 10 µM at CYP1A2 came to 1%; at CYP2C9 it was 76%; against CYP2D6 it was 48%; on CYP3A4, 40%. The clearance in series [9] is 4 mL/min/kg. The Vd in series [10] is 0.5 L/kg. The AUC in series [12] was 7.9 µM·h; in series [15], 11.5 µM·h. For the same compound, in series [13], the Cmax came to 1190 nM. The compound also had a bioavailability in [14] of 35%.

The IC50 is the midpoint of a concentration-inhibition curve. A higher IC50 goes with weaker potency in that assay. Usually inhibition stands for the drop in the measured response relative to a control, in per cent. As usually defined, the half-life is how long it takes for the measured level to halve. Low values mean rapid decline, high ones slow decline. For orientation: AUC means concentration integrated over time. High values mean more exposure, low ones less exposure. For orientation: Cmax means the maximum level reached in the sampled fluid or tissue. A word on the bioavailability: it is the share of a dose that reaches the circulation, judged against a reference dose that is usually intravenous. Higher therefore signals good availability.
